In paper PMC7024313, “Identification and Repurposing of Trisubstituted Harmine Derivatives as Novel Inhibitors of Mycobacterium tuberculosis Phosphoserine Phosphatase” (Molecules, 2020):

Assays:
[1] = molecular target: T1, SerB2 (M. tuberculosis phosphoserine phosphatase) (Mycobacterium tuberculosis, UniProt O53289); test: malachite green phosphatase assay, slope replot fitted to Hill-type model; assay type: biochemical
Text: malachite green phosphatase assay, slope replot fitted to Hill-type model on SerB2 (M. tuberculosis phosphoserine phosphatase)

[2] = molecular target: T1, SerB2 (M. tuberculosis phosphoserine phosphatase); test: malachite green phosphatase assay; assay type: biochemical
Text: malachite green phosphatase assay on SerB2 (M. tuberculosis phosphoserine phosphatase)

T1 sequence (O53289 whole entry): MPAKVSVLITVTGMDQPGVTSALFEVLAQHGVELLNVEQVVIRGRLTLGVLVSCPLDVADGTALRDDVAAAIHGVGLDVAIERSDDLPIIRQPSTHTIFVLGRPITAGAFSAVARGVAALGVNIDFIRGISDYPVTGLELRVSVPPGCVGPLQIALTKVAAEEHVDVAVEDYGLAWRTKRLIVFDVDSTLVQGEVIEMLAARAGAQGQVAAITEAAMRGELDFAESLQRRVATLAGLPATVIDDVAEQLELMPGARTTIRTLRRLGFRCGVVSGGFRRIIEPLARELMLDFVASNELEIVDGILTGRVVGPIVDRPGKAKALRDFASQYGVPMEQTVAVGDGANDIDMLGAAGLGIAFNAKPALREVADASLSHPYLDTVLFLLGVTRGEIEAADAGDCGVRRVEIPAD

| SMILES | Ki [1] | inhibition at 10 µM [2] |
| --- | --- | --- |
| Cc1c2c(cc[n+]1CCC(C)C)c1ccc(OCCC(C)C)cc1n2CCC(C)C [compound 88, 88] | 18.3 ± 2.3 µM | – |
| Cc1c2c(cc[n+]1CCC(C)C)c1ccc(OCC3CCCCC3)cc1n2CC1CCCCC1 [compound 90, 90] | – | 16.5 ± 13.3% |
| Cc1c2c(cc[n+]1CCc1ccccc1)c1ccc(OCC3CCCCC3)cc1n2CC1CCCCC1 [compound 91, 91] | 3.27 ± 0.12 µM | – |
| Cc1c2c(cc[n+]1CCc1ccccc1)c1ccc(OCc3ccccc3)cc1n2Cc1ccccc1 [compound 94, 94] | – | 15.6 ± 4.3% |
| Cc1c2c(cc[n+]1Cc1ccc3ccccc3c1)c1ccc(OCc3ccccc3)cc1n2Cc1ccccc1 [compound 95, 95] | 6.66 ± 0.39 µM | – |
| Cc1c2c(cc[n+]1CCC1CCCCC1)c1ccc(OCC3CCCCC3)cc1n2CC1CCCCC1 [compound 124, 7-(cyclohexylmethoxy)-9-(cyclohexylmethyl)-1-methyl-2-(2-cyclohexylethyl)-β -carboline-2-ium bromide] | 1.75 ± 0.11 µM | – |
